In the experiment the test system is 3T3-L1 cells. The experiment is described as follows: Lipid decomposition (glycerol secretion) in in vitro obese model of differentiated 3T3-L1 adipocytes. It is filed as cell-based. The conditions noted are these: 24 hr. As to the method:
As adipocyte precursor cells, 3T3-L1 cells (Dainippon Sumitomo Pharmaceuticals Co., Ltd.) were used. The 3T3-L1 cells were cultured in passage medium A (10% bovine serum-added DMEM supplemented with penicillin[…]streptomycin) in a 75 cm^2 flask. The 3T3-L1 cells were plated in a 24 well plate at 20000 cells/well. The next day, the medium was changed to passage medium B (10% fetal calf serum-added high glucose DMEM supplemented with penicillin-streptomycin) and, 48 hr later, the medium was changed to differentiation induction medium. The differentiation induction medium contained passage medium B as a base medium, and dexamethasone, isobutylmethylxanthine, insulin and pioglitazone at a final concentration of 0.5 μM, 500 μM, 8 μg/ml and 2 μM, respectively. Further, 48 hr later, the medium was changed to a differentiation promoting medium. The differentiation promoting medium contained passage medium B as a base medium, and insulin and pioglitazone at a final concentration of 8 μg/ml and 2 μM, respectively. 48 hr later, the medium was changed to passage medium B. Thereafter, the medium was changed to passage medium B every other day. 7 to 10 days later, differentiation of 3T3-L1 cells into mature adipocyte cells were confirmed with a phase contrast microscope, and the cells were subjected to the following test.
After removing passage medium B by an aspirator, the cells were washed with KRB-HEPES (128 mM NaCl, 10 mM NaH2PO4, 4.7 mM KCl, 1.25 mM CaCl2, 1.25 mM MgCl2, 50 mM HEPES, pH 7.4). The licorice hydrophobic extract (50 mg/ml) of Example 1 and α-lipoic acid (100 mM) as an antioxidant ingredient were each dissolved in DMSO. […] The glycerol concentration was measured using Glycerol Reagent A manufactured by Zen-Bio, and the glycerol amount per protein concentration of the cell was calculated and compared. […]
After removing passage medium B, the cells were washed with KRB-HEPES. […] The glycerol concentration was measured using Glycerol Reagent A manufactured by Zen-Bio, and the glycerol amount per protein concentration of the cell was calculated and compared. […]

With `O=C(O)CCCCC1CCSS1` (stereo not drawn) [α-lipoic acid], the glycerol secretion amount (Table 1 (Example 9), α-lipoic acid 30 μM) stood at 89.6 ± 4.8 μM/mg protein.

As to `O=c1c(-c2ccc(O)cc2)coc2cc(O)cc(O)c12` [genistein], the glycerol secretion amount (Table 2 (Example 10), genistein 10 μM) amounted to 111.1 ± 6.3 μM/mg protein.

Regarding `C[N+](C)(C)CC(O)CC(=O)[O-]` (stereo not drawn) [carnitine], the glycerol secretion amount (Table 3 (Example 11), carnitine 80 μM) was found to be 43.5 ± 1.9 μM/mg protein.

The values above are taken from patent US20080286254A1, “Composition comprising licorice polyphenol” (Kaneka Corporation, priority 2007, published 2008).
